Source: patent US8394829B2, “Bi-functional quinoline analogs” (Gilead Sciences, Inc., priority 2010, dated 2013)

What was measured:
[1] = target: T1, human recombinant beta-2 adrenoreceptors (Homo sapiens, UniProt P07550); test: Beta-2 adrenoceptor binding assay ([3H](−)CGP-12177 displacement); details: CHO cells expressing human beta-2 adrenoreceptors, [3H](−)CGP-12177 0.3 nM, 120 min
T1 construct: expressed in transfected cells; host or cells: CHO cells
Experimental: Beta-2 Adrenoceptor Binding Assay
Test compounds were incubated for 120 min with Chinese hamster oocyte (CHO) cells expressing the human recombinant beta-2 adrenoreceptors. Binding of test compounds to the beta-2 adrenoreceptors was determined by measuring the displacement of the radiolabeled ligand [^3H](−)CGP-12177 (0.3 nM) from the receptor measured by a scintillation counting. Concentration response curves were generated for test compounds and the IC50 (molar concentration of the compound which produced 50% inhibition for the maximal response for that compound) was determined. These assays were performed using a protocol based on the original description of the assay by Joseph et al., (2004) Naun.-Sch. Arch. Pharm.; 369:525-532.
IC50 determinations for the compounds presented above are seen in the second column of Table 1 (Beta 2 IC50).

[2] = tested on: LPS-induced TNF-α release from human peripheral blood mononuclear cells (PBMC); test: Inhibition of LPS-induced TNF-α release from human PBMC; format: cell-based; details: LPS 0.4 ng/mL, 6 h, presence or absence of ICI-118551 not given
Source text: Inhibition of Lipopolysaccharide (LPS)-Induced Tumour Necrosis Factor Alpha (TNF-α) Release from Human Peripheral Blood Mononuclear Cells (PBMC)
Human whole blood was drawn from donors and cell purification initiated within two hours. Peripheral blood mononuclear cells (PBMC) were purified using a standard Ficoll gradient purification technique and aliquoted at a concentration of 100,000 cells/well in 96 well plates. Beta-2 adrenoreceptor agonists are also anti-inflammatory for some immune cells expressing the receptor and in this assay they can inhibit tumor necrosis factor-alpha (TNF-α) production. Therefore PBMC were pre-incubated for 30 min in the presence of the beta-2 adrenoreceptor antagonist ICI-118551 [3-(isopropylamino)-1-[(7-methyl-4-indanyl)oxy]butan-2-ol] (10 μM) to determine the PDE4 directed activity of test compounds, and in the absence of ICI-118551 for the combined PDE4 and beta-2 receptor directed activity. Test compounds were dissolved in DMSO and diluted in buffer (final DMSO concentration of 0.1% v/v) and were then added to the cell suspensions and pre-incubated for a further 1 h at 37° C. LPS solution was then added (0.4 ng/mL) and the cells incubated for a further 6 h. At the end of the incubation period the cell supernatants were collected and TNF-α was measured using a Procarta Cytokine Assay Kit (Affymetrix, Santa Clara, Calif.) according to the manufacturers' instructions. Data were analyzed using MiraiBio Masterplex QT v4.0 software (MasterPlex Version 1.0.1.18 Copyright 2008, Hitachi Software Engineering Co., Ltd) and used to extrapolate Mean Fluorescence Intensity (MFI) into concentrations of TNF-α and mean values from replicate wells were determined. Inhibition curves were plotted using a nonlinear curve fit employing a single-site binding model to determine the IC50 value for each test compound in the presence or absence of ICI-118551 using GraphPad Prism 5 for Windows, version 5.02 (GraphPad Software, San Diego Calif.).
EC50 determinations for the compounds presented above are seen in the fourth column of Table 1 (PBMC TNF EC50).

[3] = target: T1, human recombinant beta-2 adrenoreceptors; test: Functional agonism of human recombinant beta-2 adrenoreceptors expressed in CHO cells (cAMP HTRF); format: cell-based; details: CHO cells expressing human beta-2 adrenoreceptors, cAMP elevation, 30 min
Experimental: Functional Agonism of Human Recombinant Beta-2 Adrenoreceptors Expressed in Chinese Hamster Oocytes (CHO)
Test compounds were incubated for 30 min with CHO cells expressing the human recombinant beta-2 adrenoreceptors. Agonism of the receptor was measured by the elevation of intracellular cyclic-AMP over control levels detected using a homogeneous time resolved fluorescence (HTRF) format. Compounds were determined to be “full” or “partial” agonists based on the maximum level of cAMP accumulated compared to the control compound isoproterenol which is a full agonist in this assay system. Concentration response curves were generated for test compounds and the EC50 (molar concentration of the agonist which produced 50% of the maximal response for that compound) was determined. These assays were performed using a protocol based on the original description of the assay by Baker, J. G. (2005) Brit. J. Pharmacol.; 144:317-322.
EC50 determinations for the compounds presented above are seen in the third column of Table 1 (Beta 2 EC50).

[4] = target: T2, Human recombinant PDE4B2 (Homo sapiens, UniProt Q07343); test: Inhibition of PDE4B4 enzyme activity (PDE Glo Assay); format: biochemical; details: human recombinant PDE4B2, 50 nM cAMP; read-out: PDE4 IC50
T2 construct: purchased BPS Bioscience
Experimental: Biological Examples Inhibition of PDE4B4 Enzyme Activity
The inhibitory activity of test compounds were determined using the PDE Glo Assay (Promega, V1361). The PDE-Glo Reaction Buffer was prepared (1 mL 5× buffer+4 mL water) and 150 nM solution of test compound dissolved in the Reaction Buffer, followed by 1:3 serial dilutions into Reaction Buffer. […] Human recombinant PDE4B2 (BPS Bioscience) was added to test compound in Reaction Buffer at a concentration of 0.12 nM per reaction. The enzyme and test compound were pre-incubated together at rt for 10 min. 50 nM of the enzyme substrate cAMP was then added to initiate the enzyme reaction, with the reaction terminated after one hour. Termination Buffer (1 mL 5× termination buffer+3.9 mL water+100 μL of 100 mM IBMX (ICN Chemicals, in DMSO)), was added to each reaction well to terminate the reaction. Detection Buffer (1 mL 5×PDE-Glo Detection buffer+3.96 mL water+40 μL PKA (supplied in kit)) was added to the cAMP-enzyme-test compound mix and this secondary reaction proceeded for 20 minutes at rt. An equal volume of Kinase Glo Reagent was then added to the reaction mixture and after 10 min luminescence was measured using a luminometer (EnVision, 0.1 sec read for luminescence). Luminescence values were […] related to levels of cAMP in the reaction mixture. Data were plotted as relative light units (RLU) versus test compound concentration and the IC50 determined using GraphPad Prism 5.0, using a nonlinear curve fit in a single-site binding model.
IC50 determinations for the compounds presented above are seen in the first column of Table 1 (PDE4IC50).

T1 sequence (P07550 whole entry): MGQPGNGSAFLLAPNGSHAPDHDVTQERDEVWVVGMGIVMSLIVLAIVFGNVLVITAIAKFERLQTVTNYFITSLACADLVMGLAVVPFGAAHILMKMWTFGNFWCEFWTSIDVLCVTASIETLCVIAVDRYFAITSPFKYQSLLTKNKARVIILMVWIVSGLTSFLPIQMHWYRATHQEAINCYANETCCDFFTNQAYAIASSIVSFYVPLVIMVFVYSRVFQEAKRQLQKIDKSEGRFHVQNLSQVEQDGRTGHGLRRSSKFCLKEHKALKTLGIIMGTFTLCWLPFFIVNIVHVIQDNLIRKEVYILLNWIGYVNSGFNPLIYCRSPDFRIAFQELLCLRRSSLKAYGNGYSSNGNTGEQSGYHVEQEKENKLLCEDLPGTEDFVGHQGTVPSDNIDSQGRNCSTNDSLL
T2 sequence (Q07343 1-564 isoform Q07343-2): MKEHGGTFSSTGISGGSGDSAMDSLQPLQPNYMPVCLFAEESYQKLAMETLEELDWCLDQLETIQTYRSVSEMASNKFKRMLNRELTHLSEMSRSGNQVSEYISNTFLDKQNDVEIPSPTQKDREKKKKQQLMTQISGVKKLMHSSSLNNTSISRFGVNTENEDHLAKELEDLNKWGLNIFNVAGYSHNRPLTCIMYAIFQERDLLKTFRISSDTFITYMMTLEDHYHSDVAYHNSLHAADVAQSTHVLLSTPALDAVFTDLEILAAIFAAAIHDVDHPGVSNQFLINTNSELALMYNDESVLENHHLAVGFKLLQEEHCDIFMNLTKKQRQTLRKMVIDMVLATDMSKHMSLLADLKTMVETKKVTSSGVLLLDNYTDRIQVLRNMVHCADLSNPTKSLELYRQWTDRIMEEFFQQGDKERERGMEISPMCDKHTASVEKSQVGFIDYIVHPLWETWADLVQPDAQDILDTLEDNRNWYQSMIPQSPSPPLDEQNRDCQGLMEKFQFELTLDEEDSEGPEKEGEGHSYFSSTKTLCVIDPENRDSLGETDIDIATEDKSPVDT

SMILES | IC50 [1] [nM] | EC50 [3] [nM] | IC50 [4] [nM] | EC50 [2] [nM]
COc1cccc(Nc2c(C(N)=O)cnc3c(C)cc(S(=O)(=O)c4cccc(C(=O)NCCCCCCCCNC[C@H](O)c5ccc(O)c6[nH]c(=O)ccc56)c4)cc23)c1 [Example 1, (R)-6-[[3-[[8-[[2-Hydroxy-2-(8-hydroxy-2-oxo-1,2-dihydroquinolin-5-yl)ethyl]amino]octyl]carbamoyl]phenyl]sulfonyl]-4-[(3-methoxyphenyl)amino]-8-methylquinoline-3-carboxamide] | < 100 | < 100 | < 100 | < 100
COc1cccc(Nc2c(C(N)=O)cnc3c(C)cc(S(=O)(=O)c4cccc(C(=O)Nc5ccc(C#CCCCNC[C@H](O)c6cc(O)cc7c6OCC(=O)N7)cc5)c4)cc23)c1 [Example 24, (R)-6-((3-((4-(5-((2-hydroxy-2-(6-hydroxy-3-oxo-3,4-dihydro-2H-benzo[b][1,4]oxazin-8-yl)ethyl)amino)pent-1-yn-1-yl)phenyl)carbamoyl)phenyl)sulfonyl)-4-((3-methoxyphenyl)amino)-8-methylquinoline-3-carboxamide] | < 100 | < 300 | – | < 100
COc1cccc(Nc2c(C(N)=O)cnc3c(C)cc(S(=O)(=O)c4cccc(C(=O)Nc5ccc(C#CCCCNC[C@H](O)c6ccc(O)c7c6OCC(=O)N7)cc5C)c4)cc23)c1 [Example 35, (R)-6-((3-((4-(5-((2-hydroxy-2-(5-hydroxy-3-oxo-3,4-dihydro-2H-benzo[b][1,4]oxazin-8-yl)ethyl)amino)pent-1-yn-1-yl)-2-methylphenyl)carbamoyl)phenyl)sulfonyl)-4-((3-methoxyphenyl)amino)-8-methylquinoline-3-carboxamide] | < 100 | < 100 | – | < 100
COc1cccc(Nc2c(C(N)=O)cnc3c(C)cc(S(=O)(=O)c4cccc(C(=O)N(C)c5ccc(CCCCOCCCCCCNC[C@H](O)c6ccc(O)c7[nH]c(=O)ccc67)cc5)c4)cc23)c1 [Example 40, (R)-6-((3-((4-(4-((6-((2-hydroxy-2-(8-hydroxy-2-oxo-1,2-dihydroquinolin-5-yl)ethyl)amino)hexyl)oxy)butyl)phenyl)(methyl)carbamoyl)phenyl)sulfonyl)-4-((3-methoxyphenyl)amino)-8-methylquinoline-3-carboxamide] | < 100 | < 100 | – | –
COc1cccc(Nc2c(C(N)=O)cnc3c(C)cc(S(=O)(=O)c4cccc(C(=O)N5CCC(NC[C@H](O)c6ccc(O)c(CO)c6)CC5)c4)cc23)c1 [Example 42, (R)-6-[[3-[[4-[[2-Hydroxy-2-[4-hydroxy-3-(hydroxymethyl)phenyl]ethyl]amino]piperidine-1-yl]carbonyl]phenyl]sulfonyl]-4-[(3-methoxyphenyl)amino]-8-methylquinoline-3-carboxamide] | < 300 | – | < 100 | < 100

More lines, main results first:

IC50 [1] [nM] | EC50 [3] [nM] | IC50 [4] [nM] | SMILES | EC50 [2] [nM]
< 100 | – | – | COc1cccc(Nc2c(C(N)=O)cnc3c(C)cc(S(=O)(=O)c4cccc(C(=O)Nc5ccc(-c6ccc(CCCCNC[C@H](O)c7ccc(O)c8c7OCC(=O)N8)cc6)cc5)c4)cc23)c1 [Example 21, (R)-6-((3-((4′-(4-((2-hydroxy-2-(5-hydroxy-3-oxo-3,4-dihydro-2H-benzo[b][1,4]oxazin-8-yl)ethyl)amino)butyl)-(1,1′-biphenyl]-4-yl)carbamoyl)phenyl)sulfonyl)-4-((3-methoxyphenyl)amino)-8-methylquinoline-3-carboxamide] | < 100
< 100 | < 100 | – | COc1cccc(Nc2c(C(N)=O)cnc3c(C)cc(S(=O)(=O)c4cccc(C(=O)Nc5cccc(-c6ccc(CCCCNC[C@H](O)c7ccc(O)c8c7OCC(=O)N8)cc6)c5)c4)cc23)c1 [Example 22] | < 100
< 100 | – | – | COc1cccc(Nc2c(C(N)=O)cnc3c(C)cc(S(=O)(=O)c4cccc(C(=O)Nc5ccc(C#CCCCNC[C@H](O)c6ccc(O)c7c6OCC(=O)N7)c(C)c5)c4)cc23)c1 [Example 36, (R)-6-((3-((4-(5-((2-hydroxy-2-(5-hydroxy-3-oxo-3,4-dihydro-2H-benzo[b][1,4]oxazin-8-yl)ethyl)amino)pent-1-yn-1-yl)-3-methylphenyl)carbamoyl)phenyl)sulfonyl)-4-((3-methoxyphenyl)amino)-8-methylquinoline-3-carboxamide] | < 100
< 100 | – | – | COc1cccc(Nc2c(C(N)=O)cnc3c(C)cc(S(=O)(=O)c4ccc(-c5ccc(CCCNC[C@H](O)c6ccc(O)c7c6OCC(=O)N7)cc5)cc4)cc23)c1 [Example 49, (R)-6-((4′-(3-((2-hydroxy-2-(5-hydroxy-3-oxo-3,4-dihydro-2H-benzo[b][1,4]oxazin-8-yl)ethyl)amino)propyl)-[1,1′-biphenyl]-4-yl)sulfonyl)-4-((3-methoxyphenyl)amino)-8-methylquinoline-3-carboxamide] | < 100
< 100 | – | – | COc1cccc(Nc2c(C(N)=O)cnc3c(C)cc(S(=O)(=O)c4cccc(-c5ccc(CCCNC[C@H](O)c6ccc(O)c7c6OCC(=O)N7)cc5)c4)cc23)c1 [Example 50, (R)-6-((4′-(3-((2-hydroxy-2-(5-hydroxy-3-oxo-3,4-dihydro-2H-benzo[b][1,4]oxazin-8-yl)ethyl)amino)propyl)-[1,1′-biphenyl]-3-yl)sulfonyl)-4-((3-methoxyphenyl)amino)-8-methylquinoline-3-carboxamide] | < 100
< 100 | < 100 | – | COc1cccc(Nc2c(C(N)=O)cnc3c(C)cc(S(=O)(=O)c4ccc(-c5ccc(CCCCCNC[C@H](O)c6ccc(O)c7c6OCC(=O)N7)cc5)cc4)cc23)c1 [Example 51, (R)-6-((4′-(5-((2-hydroxy-2-(5-hydroxy-3-oxo-3,4-dihydro-2H-benzo[b][1,4]oxazin-8-yl)ethyl)amino)pentyl)-[1,1′-biphenyl]-4-yl)sulfonyl)-4-((3-methoxyphenyl)amino)-8-methylquinoline-3-carboxamide] | < 100
